Experimental data as given in PMC10799935, “Discovery of a peripheral 5HT2A antagonist as a clinical candidate for metabolic dysfunction-associated steatohepatitis” (Nature Communications, 2024).
Entries after “also recorded” stand apart in the source; their conditions may differ. Where two headings read alike, the source gives them in different places.

Columns and labels:
STZ+HFD mice = STZ+HFD mice (modified STAM) NASH and liver fibrosis model; type: in vivo, mouse
Experimental: Mice were intraperitoneally injected with low-dose streptozotocin (40 mg/kg; 5 times) in 7-week-old mice. After injection with STZ, mice were fed an HFD for 16 weeks to induce NASH and liver fibrosis. After 16 weeks of an HFD, mice were fed a standard chow diet to mimic the NASH patient under […]
nine weeks by oral gavage (Reviewer-only data 4). […]
inflammation, hepatocyte ballooning, and total NAFLD activity score by the NASH CRN histological scoring system (Reviewer-only data 4B, C). […]
hepatic fibrosis stage similar to STZ+HFD mice treated with OCA (Reveiwer-only data 4D, E). STZ+HFD mice […]
function (Reviwer-only data 4F). […]
group (Reviewer-only data 4G). Furthermore, the expression of genes related to lipogenesis and fibrosis was reduced in the compound 11c-treated group in a dose-dependent manner (Reviewer-only data 4H, I). These […]
Reviewer-only Data 4. Compound 11c treatment with dietary modification ameliorates NASH and liver fibrosis in a dose-dependent manner. (A) Experimental scheme for in vivo efficacy of compound 11c in […]
(STZ+HFD mice. (B-I) STZ+HFD mice fed HFD for 16 weeks were switched to SCD for 9 weeks and were treated with vehicle, compound 11c, or OCA by daily oral gavage. (B) Representative liver histology by H&E staining […]
mg/kg. Scale bars, 100µm. […]
mice; n = 9 per group. (D) Representative liver histology by Masson’s trichrome staining from vehicle, […]
Scale bars, 100µm. (E) Fibrosis stage
(F) Serum AST and ALT levels; n = 9 per […]
group. (G) Serum TG levels and hepatic TG levels; n = 9 per group. (H) Relative mRNA expression of lipogenesis-related genes as assessed by qRT-PCR in the liver; n = 9 per group. (I) Relative mRNA expression of fibrosis-related genes as assessed by qRT-PCR in the liver; n = 9 per group. Data are expressed as the means ±SEM.
[…], **P<0.01, one-way ANOVA with post hoc Tukey’s test (C, E, F, G, H, I). […]
Representative liver histology by Masson’s trichrome staining and Sirius Red staining. Scale bars, 100µm. (E) […]
one-way ANOVA with post hoc Tukey’s test (C, E).
Comment 2: In "Methods", the author claims to use HEK293 cells (a type of cell derived from kidney embryos) for cell research, however, the data in Table 5 are the results of hepatocyte experiments. What happened? Response: We appreciate the Reviewer’s comment. HEK293 cells were used for inhibition assay (cell research), shown in Table 1-3 of the main manuscript, while, hepatic cell lines were used for chemical profiling and for “Hepatocyte stability” test, shown in Table 5 of the main manuscript. The “Selectivity” of Compound 11c for different 5HT subtypes is elucidated in response to Comment 6.
We have modified the Methods section to provide clarity.

[1] = Pharmacokinetic study in dogs; type: in vivo, Beagle dogs; details: dog
Experimental: The experimental protocol for this study was approved by the IACUC of KPC Co., Ltd. (No. KPC IACUC-P203046; Beagle dogs) or QuBEST BIO (No.QBIACUC-A20131). All relevant ethical guidelines were followed. Beagle male dogs (11 ~ 20 months old) were purchased from ORIENT BIO Inc. and were housed in the barrier animal facility of KPC Co., Ltd. under a regular light-dark cycle (12-hour light/12-hour dark) at 21.1–23.4°C with 55.3–72.2% humidity. Food (standard irradiated pelleted commercial laboratory diet, Cargill Agri Purina, 300 g/dog.day) and water were provided ad libitum. All study dogs were returned to the laboratory colony after the study without any euthanasia. Sprague-Dawley male rats (7 weeks old) were purchased from SAMTAKOBIOKOREA, Inc. and were housed in the barrier animal facility of Nonclinical Research Center, QuBEST BIO under a regular light-dark cycle (12-hour light/12-hour dark) at 19.7–22.7°C with 54.5–65.6% humidity. Food (standard irradiated pelleted commercial laboratory diet, Purina Rodent Chow, 38057) and water were provided ad libitum. All study rats were euthanized by CO2 gas upon study completion.
Blood samples were collected at the scheduled times up to 24 h post-dose (IV: 0.083, 0.25, 0.5, 1, 2, 4, 8, 12 and 24 h post-dose, PO: 0.25, 0.5, 1, 2, 4, 8, 12 and 24 h post-dose). Determination of compound 11c in plasma was performed by UHPLC-MS/MS. Pharmacokinetic parameters were calculated by noncompartmental analysis using Phoenix® WinNonlin® (Ver. 8.3‘, Certara).

CYP3A4 = CYP3A4 (Homo sapiens, UniProt P08684); assay: in vitro
Chain of CYP3A4 (P08684 whole entry): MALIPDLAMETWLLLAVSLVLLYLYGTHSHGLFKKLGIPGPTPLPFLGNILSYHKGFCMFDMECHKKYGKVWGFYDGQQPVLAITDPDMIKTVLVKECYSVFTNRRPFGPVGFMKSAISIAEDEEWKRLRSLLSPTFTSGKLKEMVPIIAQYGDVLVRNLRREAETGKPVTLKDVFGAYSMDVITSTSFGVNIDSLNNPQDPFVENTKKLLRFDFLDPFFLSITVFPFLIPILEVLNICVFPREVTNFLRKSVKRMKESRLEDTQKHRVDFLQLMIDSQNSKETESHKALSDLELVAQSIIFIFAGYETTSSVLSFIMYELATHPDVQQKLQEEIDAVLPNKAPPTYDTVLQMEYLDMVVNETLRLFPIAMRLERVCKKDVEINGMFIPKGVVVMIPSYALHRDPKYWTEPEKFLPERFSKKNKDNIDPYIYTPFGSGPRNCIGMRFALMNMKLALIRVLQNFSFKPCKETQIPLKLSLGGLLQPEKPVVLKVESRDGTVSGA

[2] = male, beagle, plasma, 5 mg/kg, IV (5 mpk)
[3] = male, beagle, plasma, 5 mg/kg, PO (5 mpk)

SMILES: Cc1nc2n(c(=O)c1CCN1CCC(=C3c4ccc(Cl)cc4CCc4cccnc43)CC1)CCCC2O (stereo not drawn) [Compound 11c]
- Hepatic triglyceride levels (STZ+HFD mice): reduced
- plasma AST and ALT levels (STZ+HFD mice): decreased
- fibrosis stage and total NAFLD activity score (STZ+HFD mice; 5 or 10 mg/kg daily oral gavage, nine weeks): effectively improved; also recorded: better than obeticholic acid
- hepatic fibrosis stage (STZ+HFD mice; 11c 5 or 10 mg/kg, OCA 10 mg/kg): improvement
- hepatic steatosis, lobular inflammation, hepatocyte ballooning, and total NAFLD activity score (STZ+HFD mice; NASH CRN scoring): improved
- expression of genes related to lipogenesis and fibrosis (STZ+HFD mice; dose-dependent manner): reduced
- V ([1]; IV (5 mpk)): 4.36 L/kg
- bioavailability ([1]; male, beagle, plasma, po, 5 mpk, dogs (summary statement), read-out: oral bioavailability): > 60%
- AUC [1, 2]: 16800 ng·h/mL
- clearance [1, 2]: 7 mL/min/kg
- half-life [1, 2]: 8.6 h
- AUC [1, 3]: 19100 ng·h/mL
- half-life [1, 3]: 10.2 h
- bioavailability ([1]; male, beagle, plasma, 5 mg/kg, PO (5 mpk), read-out: F (%)): 73%
- inhibition at 10 µM (CYP3A4): 17.6%
